This is an account of results in ChEMBL document CHEMBL3045911, “Control of Contarinia nasturtii Keiffer (Diptera: Cecidomyiidea) by foliar sprays of acetamiprid on cauliflower transplants” (2007).

Activity calls are given as the source filed them. The rule behind the calls is not given here.

Assay [1] has as its system Contarinia nasturtii. Briefly: Pesticidal activity against Contarinia nasturtii grown on […] assessed as larval pupation applied as foliar spray 8 days post-ovipositioning relative to control. Type of assay: functional.
Assay [2] deals with Contarinia nasturtii. Briefly: Pesticidal activity against Contarinia nasturtii grown on […] assessed as larvae survival applied as foliar spray 8 days post-ovipositioning relative to control. Type of assay: functional.
In assay [3] the test system is Contarinia nasturtii. Nature of the assay: Pesticidal activity against Contarinia nasturtii grown on […] applied as foliar spray immediately post-ovipositioning relative to control. Type of assay: functional.
Assay [4] concerns Contarinia nasturtii. Nature of the assay: Pesticidal activity against Contarinia nasturtii grown on three-leaf stage cauliflower seedling at 34 g a.i./ha applied as foliar spray 8 days post-ovipositioning measured after 10 days. Type of assay: functional.
For assay [5], the system named is Contarinia nasturtii. Nature of the assay: Pesticidal activity against Contarinia nasturtii grown on three-leaf stage cauliflower seedling at 34 g a.i./ha applied as foliar spray 4 days post-ovipositioning measured after 7 days. Type of assay: functional.
For assay [6], the system named is Contarinia nasturtii. Nature of the assay: Pesticidal activity against Contarinia nasturtii grown on three-leaf stage cauliflower seedling at 34 g a.i./ha applied as foliar spray immediately post-ovipositioning measured after 7 days. Type of assay: functional.
In assay [7] the test system is Contarinia nasturtii. Briefly: Pesticidal activity against Contarinia nasturtii grown on three-leaf stage cauliflower seedling assessed as decrease in insect eggs laid per plant at 34 g a.i./ha applied as foliar spray 4 days post-ovipositioning measured after 7 days relative to control. Type of assay: functional, organism-based.
The test system of assay [8] is Contarinia nasturtii. Briefly: Pesticidal activity against Contarinia nasturtii grown on three-leaf stage cauliflower seedling assessed as insect egg death at 34 g a.i./ha applied as foliar spray immediately post-ovipositioning measured after 7 days relative to control. Type of assay: functional.
The test system of assay [9] is Contarinia nasturtii. Nature of the assay: Pesticidal activity against Contarinia nasturtii grown on three-leaf stage cauliflower seedling assessed as insect egg hatching at 34 g a.i./ha applied as foliar spray immediately post-ovipositioning measured after 7 days (reference value: 100%). Type of assay: functional.
The test system of assay [10] is Contarinia nasturtii. Nature of the assay: Pesticidal activity against Contarinia nasturtii grown on three-leaf stage cauliflower seedling assessed as decrease in insect eggs laid per plant at 34 g a.i./ha applied as foliar spray immediately post-ovipositioning measured after 7 days relative to control. Type of assay: functional, organism-based.
Assay [11] has as its system Contarinia nasturtii. Nature of the assay: Pesticidal activity against Contarinia nasturtii grown on three-leaf stage cauliflower seedling at 34 g a.i./ha applied as foliar spray prior to oviposition measured after 7 days. Type of assay: functional.
Assay [12] relates to Contarinia nasturtii. Nature of the assay: Pesticidal activity against Contarinia nasturtii grown on three-leafstage cauliflower seedling assessed as insect egg hatching at 34 g a.i./ha applied as foliar spray prior to oviposition measured after 7 days (reference value: 100%). Type of assay: functional.
In assay [13] the test system is Contarinia nasturtii. Briefly: Pesticidal activity against Contarinia nasturtii grown on three-leaf stage cauliflower seedling assessed as insect egg death at 34 g a.i./ha applied as foliar spray prior to oviposition measured after 7 days. Type of assay: functional, organism-based.
For assay [14], the system named is Contarinia nasturtii. Briefly: Pesticidal activity against Contarinia nasturtii grown on three-leaf stage cauliflower seedling assessed as decrease in larval feeding time at 34 g a.i./ha applied as foliar spray 8 days post-ovipositioning measured as emergence of adult insect in the soil 7 days after cutting of seedling. Type of assay: functional, organism-based.

Assay [15] concerns Contarinia nasturtii. Briefly: Pesticidal activity against Contarinia nasturtii grown on three-leaf stage cauliflower seedling assessed as decrease in mean number of larvae at 34 g a.i./ha applied as foliar spray 8 days post-ovipositioning measured on the above ground part of seedling after 10 days. Type of assay: functional, organism-based.
The subject of assay [16] is Contarinia nasturtii. Briefly: Pesticidal activity against Contarinia nasturtii grown on three-leaf stage cauliflower seedling assessed as decrease in damage to seedling tips at 34 g a.i./ha applied as foliar spray 8 days post-ovipositioning measured after 10 days. Type of assay: functional, organism-based.
Assay [17] relates to Contarinia nasturtii. Briefly: Pesticidal activity against Contarinia nasturtii grown on three-leaf stage cauliflower seedling assessed as insect egg hatching at 34 g a.i./ha applied as foliar spray 8 days post-ovipositioning measured after 10 days (reference value: 100%). Type of assay: functional.
The subject of assay [18] is Contarinia nasturtii. Nature of the assay: Pesticidal activity against Contarinia nasturtii grown on three-leaf stage cauliflower seedling assessed as insect egg hatching at 34 g a.i./ha applied as foliar spray 4 days post-ovipositioning measured after 7 days (reference value: 99.73 +/- 0.27%). Type of assay: functional.
In assay [19] the test system is Contarinia nasturtii. Briefly: Pesticidal activity against Contarinia nasturtii grown on three-leaf stage cauliflower seedling assessed as decrease in insect eggs laid per plant at 34 g a.i./ha applied as foliar spray prior to oviposition measured after 7 days relative to control. Type of assay: functional, organism-based.
Assay [20] relates to Contarinia nasturtii. Briefly: Pesticidal activity against Contarinia nasturtii grown on three-leaf stage cauliflower seedling assessed as mortality of insect adult at 34 g a.i./ha applied as foliar spray prior to oviposition measured after 48 hr relative to control. Type of assay: functional.
For assay [21], the system named is Contarinia nasturtii. Briefly: Pesticidal activity against Contarinia nasturtii grown on three-leaf stage cauliflower seedling assessed as mortality of insect adult at 34 g a.i./ha applied as foliar spray prior to oviposition measured after 24 hr relative to control. Type of assay: functional.

As for `C/C(=N\C#N)N(C)Cc1ccc(Cl)nc1` [ACETAMIPRID], the Activity in assay [1] is 20%; in [2], 30%; in assay [3] it was 99.9%; in assay [4] it was 69.89%; in assay [5], 99.83%; in assay [6] it was 100%. Further, the Activity in assay [8] came out at 100%; in [9], 0%; in assay [11], 99.52%; in assay [12], 0.48%; in [17], 100%; in assay [18], 100%. The outcome in assay [7], in assay [10] and in assay [16] was inactive. For the same molecule, the outcome in [13], in assay [14], in assay [15] and in assay [19] was Active. The mortality at 34 g/ha in assay [20] turned out to be 100%; in [21], 84.4%.

As a reminder, the mortality is the percentage killed.
